This is an account of results in patent publication US20230357242A1, “COMPOUND AS AKT KINASE INHIBITOR” (CHIA TAI TIANQING PHARMACEUTICAL GROUP CO., LTD., priority 2020, published 2023).

Like-named read-outs stand apart in the source and are kept apart here.

The target of one data set is T1, AKT1 (S473) (Homo sapiens, UniProt P31749).
T1 construct: endogenous in cells; host or cells: LNcap cells
Put plainly: Inhibitory effect on phosphorylation of LNcap cells AKT1 (S473). As to conditions: 1 h incubation. Type of data set: cell-based. On the procedure: LNcap cells AKT1 (S473) growing at log phase were taken, digested with 1 mL of pancreatin for 3 min, and added with 4 mL of complete medium to terminate digestion. The cells were added to a centrifuge tube. 20 μL of cells were taken and counted, the required number of cells (mL) was taken and centrifuged at 1200 rpm for 5 min, and a plating medium (2% FBS+phenol-free red 1640 base medium+1% sodium pyruvate+1% glutamine) was added to adjust the cell density to about 1×10E6 cells/mL. The cells were plated (96 wells) at the above cell density (100 μL/well), and cultured in a cell incubator at 37° C., 5% CO2 overnight; the next day, according to the plate distribution, the corresponding compound was sprayed using a nanoliter pipettor and incubated for 1 h at 37° C. in a cell incubator containing 5% CO2; the supernatant was discarded, and the plate was added with 40 μL of lysis buffer (1×) containing blocking buffer and incubated by shaking at room temperature for 30 min. After the mixture was mixed, 16 μL of lysate was transferred to another 384-well small-volume white plate. The plate was added with 4 μL of pre-mixed antibody (v/v) in assay buffer, covered, centrifuged to mix well, and incubated overnight at room temperature. The 665 nm/620 nm signal value was detected using a PE Envision multi-functional microplate reader, and IC50 was calculated by four-parameter fitting.

Data set [1] relates to AN3CA human endometrial cancer cells. Description: Pharmacodynamics in subcutaneous xenograft tumor nude mouse model of AN3CA human endometrial cancer cells. It is filed as in vivo, BALB/C nude mice. As to conditions: for in vivo tumor inhibition effect (in words) / Relative tumor volume (mean ± SD) / Tumor volume (mm^3) (mean ± SD): AN3CA xenograft; for in vivo tumor inhibition effect (in words): 20 mg/kg i.g. qd; for Relative tumor volume (mean ± SD) / Tumor volume (mm^3) (mean ± SD) / Weight change rate (%) (mean ± SD) / TGI (%) / T/C (%): day 14, 20 mg/kg i.g. qd 14 d; for Weight change rate (%) (mean ± SD): body weight; for TGI (%): by tumor weight, ** p < 0.01 vs control; for T/C (%): relative tumor proliferation rate. On the procedure: SPF-grade female BALB/C nude mice (from Changzhou Cavens Laboratory Animal Ltd.) were inoculated subcutaneously at the right side armpit with 5×10^6 AN3CA cells (sourec: Nanjing Cobioer Biosciences Co., Ltd.).
The day of grouping was determined as do, and the intragastric administration was started on the grouping day, and the administration volume was 10 mL/kg. The solvent was: D5W (5% glucose solution). The tumor volume was measured 2-3 times a week, meanwhile, the mice were weighed and the data were recorded; the general behavior of the mice was observed and recorded every day. After the experiment was completed, the tumors were removed, weighed and photographed.
Calculation formula for tumor volume: Tumor volume (mm^3)=½×(a×b^2) (where a represents long diameter and b represents short diameter).
Relative tumor proliferation rate (T/C %) refers to the percentage of the relative tumor volume of the treatment and control groups at a certain time point. The calculation formula is as follows: T/C %=TRTV/CRTV×100% (TRTv: mean relative tumor volume (RTV) for treatment group; CRTV: mean RTV for vehicle control group; RTV=TVt/TV0, where TV0 is the tumor volume at grouping, TVt is the tumor volume after treatment).
The calculation formula for weight change rate (WCR) (%) is: WCR=(Wtt−Wt0)/Wt0×100%, where Wt0 is the body weight of the animal at grouping (i.e., d0), Wtt is the body weight of the animal at each measurement.
All experimental results are expressed as mean±SD (mean±standard deviation). The relative tumor volume of the treatment group was compared with that of the control group for any significant difference by T tests, wherein p<0.01 indicates a very significant difference.

For a further data set, the system named is LNcap cells. Description: Inhibitory effect on proliferation of LNcap cells (CCK-8, 72 h). As to conditions: Homo sapiens, LNcap cells, CCK-8, read-out: LNcap cells IC50. It is filed as cell-based. How it is done:
A dish of LNcap cells (human prostate cancer cells with PTEN deficiency) growing at log phase and in good conditions were taken and digested for 3 min by using 1 mL of pancreatin, then the mixture was added with 4 mL of complete culture medium to terminate digestion, and the cells were added to a centrifuge tube. 20 μL of cells were taken and counted, the required number of cells (mL) was pipetted and centrifuged at 1200 rpm for 5 min, the supernatant was discarded, and an appropriate amount of plating medium (RPMI medium+5% FBS+1% sodium pyruvate+1% glutamine) was added to adjust the cell density to 3×10^4 cells/mL. The cells were seeded on a 96-well plate at 100 μL/well using a multi-channel pipette and cultured in a cell incubator at 37° C., 5% CO2 and saturated humidity. After incubation overnight, compounds were loaded using a nanoliter pipettor, 2 duplicate wells were set for each concentration, and cells without compound were used as negative controls. After 72 h, CCK-8 was added at 10 μL/well for incubation for 4 h, then absorbance was measured at 450 nm with an Envision plate reader, and inhibition rate was calculated. Inhibition rate (%)=(mean value of negative control group−mean value of experimental group)/(mean value of negative control group−mean value of blank group)×100%. A dose-response curve was fitted by four-parameter analysis, with the logarithm of compound concentration as abscissa and inhibition rate as ordinate, so that IC50 was calculated.

Data set [2] in a line: Pharmacokinetic evaluation in rats. Type of data set: in vivo. Details: Cl: unit not given here. As to conditions: SD rats; for bioavailability / AUC(0-inf) / AUC(0-t) / Cmax / Tmax / MRT last / Vd: rat, plasma; for bioavailability: oral, IG 10 mg/kg vs IV 1 mg/kg, read-out: Absolute bioavailability F %; for MRT last: read-out: MRT(0-t). How it is done: SD rats, weight 180-220 g, after adaption for 7 days, were randomly divided into 4 groups of 3 […], each group was intragastrically (IG) administered with compound 28 or compound 30 at a dose of 10 mg/kg, or intravenously (IV) administered with compound 28 or compound 30 at a dose of 1 mg/kg. The animals to be tested (SD rats) were fasted for 12 h before administration and food was provided 4 h after administration, and water was freely drunk before and after the experiment and during the experiment.
After intragastric administration, about 0.1 mL of blood was taken from eye sockets at 15 min, 30 min, 1 h, 2 h, 3 h, 4 h, 6 h, 8 h, 10 h, and 24 h; after intravenous injection, about 0.1 mL of blood was taken from eye sockets at 5 min, 10 min, 30 min, 1 h, 2 h, 4 h, 6 h, 8 h, 10 h, and 24 h; 3 rats were collected at each time point, whole blood was collected, placed in centrifuge tubes containing EDTA-K2, and stored at 4° C. within 1 h, and the plasma was separated off by centrifugation at 4° C. and 4000 rpm for 10 min. All the plasma samples were collected and immediately stored at −20° C. for testing. 30 μL of the plasma sample to be tested and a standard curve sample were pipetted and added with 300 μL of acetonitrile solution containing an internal standard (20 ng/mL diazepam), shaken and mixed well for 5 min, and centrifuged at 13,000 rpm for 10 min. 80 μL of supernatant was taken and diluted with 80 μL of ultrapure water. After being mixed well, 2 μL of the resulting sample was taken for liquid chromatography-mass determination, and a chromatogram was recorded.
Oral and intravenous exposure of the compound of the present application was evaluated by in vivo pharmacokinetic experiment in rats.

For orientation: IC50 means the point on the concentration scale where inhibition reaches its midpoint. The term bioavailability denotes the share of a dose that reaches the circulation, judged against a reference dose that is usually intravenous. Usually AUC(0-inf) stands for total exposure, with the tail of the curve extrapolated. The term AUC(0-t) denotes the area under the concentration-time curve up to a stated or last time point. Broadly, the Cmax is the maximum level reached in the sampled fluid or tissue. The Tmax is the time from dosing to the highest level. As a reminder, the Vd is the apparent volume that relates the amount in the body to the concentration in plasma or blood.

T1 sequence (P31749 whole entry): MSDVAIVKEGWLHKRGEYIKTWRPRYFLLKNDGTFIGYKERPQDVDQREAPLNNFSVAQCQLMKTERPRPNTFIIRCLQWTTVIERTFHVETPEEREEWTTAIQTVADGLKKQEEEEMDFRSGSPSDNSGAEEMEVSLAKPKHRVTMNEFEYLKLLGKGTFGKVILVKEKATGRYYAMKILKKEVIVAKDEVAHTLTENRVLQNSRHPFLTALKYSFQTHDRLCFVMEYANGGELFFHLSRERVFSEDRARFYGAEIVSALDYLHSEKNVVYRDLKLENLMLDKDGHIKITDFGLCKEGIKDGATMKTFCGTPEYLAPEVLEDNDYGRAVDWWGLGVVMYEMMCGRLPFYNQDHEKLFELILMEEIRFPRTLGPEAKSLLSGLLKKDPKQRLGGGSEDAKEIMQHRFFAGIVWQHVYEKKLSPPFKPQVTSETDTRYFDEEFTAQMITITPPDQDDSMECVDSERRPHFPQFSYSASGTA

As for `CC(=O)N1CC2(C1)CN(c1cccc(-c3ccc4nc(-c5cccnc5N)n(-c5ccc(C6(N)CCC6)cc5)c4n3)c1F)C2` [Compound 28], the IC50 against AKT1 (S473) came out at 28 nM. Moreover, in data set [1], the “in vivo tumor inhibition effect (in words)” value was “strong in vivo tumor inhibition effects”, the “Relative tumor volume (mean ± SD)” value was 10.5 ± 3.4, the “Tumor volume (mm^3) (mean ± SD)” value turned out to be 1267 ± 249 mm^3 and the “Weight change rate (%) (mean ± SD)” value is 4.9 ± 2.7%. Besides, in data set [1], the “TGI (%)” value is 53.2%** and the “T/C (%)” value is 44.3%. Moreover, the concentration for half-maximal inhibition (IC50) in the data set with LNcap cells worked out at 3 nM. In data set [2] (IG 10 mg/kg), the t1/2z is 3.93 ± 1.46 h. In data set [2] (IV 1 mg/kg), this compound registered a Cl of 5.75 ± 0.146, a t1/2z of 5.9 ± 2.11 h, an AUC(0-inf) of 174 ± 4.37 ng·h/mL and an AUC(0-t) of 145 ± 11.1 ng·h/mL. Moreover, in data set [2] (IV 1 mg/kg), the Vd was determined as 48.8 ± 16.8 L/kg and the MRT last came to 2.12 ± 0.099 h. Further, the bioavailability in data set [2] was 25%. In data set [2] (po, IG 10 mg/kg), the AUC(0-inf) was 372 ± 197 ng·h/mL, the AUC(0-t) is 362 ± 195 ng·h/mL, the Cmax is 32.6 ± 12.4 ng/mL and the Tmax was determined as 4.67 ± 1.15 h. The MRT last in data set [2] (po, IG 10 mg/kg) was 7.38 ± 0.43 h.
At AKT1 (S473), `Nc1ncccc1-c1nc2ccc(-c3cccc(N4CCC(N5CCCC5=O)CC4)c3F)nc2n1-c1ccc(C2(N)CCC2)cc1` [Compound 30] came in with an IC50 of 22 nM. Besides, in data set [1], the “in vivo tumor inhibition effect (in words)” value is “strong in vivo tumor inhibition effects”, the “Relative tumor volume (mean ± SD)” value was determined as 9.7 ± 2.2, the “Tumor volume (mm^3) (mean ± SD)” value stood at 1242 ± 354 mm^3 and the “Weight change rate (%) (mean ± SD)” value was determined as 2.3 ± 3.5%. Moreover, in data set [1], the “TGI (%)” value is reported as 58.4%** and the “T/C (%)” value is 40.9%. Further, the IC50 in the data set on LNcap cells was 4.8 nM. The t1/2z in data set [2] (IG 10 mg/kg) was found to be 5.43 ± 1.82 h. In data set [2] (IV 1 mg/kg), this compound gave a Cl of 7.23 ± 0.496, a t1/2z of 7.73 ± 0.440 h, an area under the curve AUC(0-inf) of 139 ± 9.21 ng·h/mL and an AUC(0-t) of 127 ± 9.69 ng·h/mL. Also, in data set [2] (IV 1 mg/kg), the Vd worked out at 80.8 ± 8.9 L/kg and the MRT last stood at 5.57 ± 0.053 h. Besides, the bioavailability in data set [2] was found to be 35.5%. Also, in data set [2] (po, IG 10 mg/kg), the total exposure AUC(0-inf) was 383 ± 106 ng·h/mL, the AUC(0-t) came to 358 ± 109 ng·h/mL, the highest level (Cmax) was 31.2 ± 8.8 ng/mL and the Tmax was 4.67 ± 1.15 h. Moreover, the MRT last in data set [2] (po, IG 10 mg/kg) stood at 8.15 ± 0.73 h.
